Assay results taken from US20240382483A1, “HETEROCYCLIC EGFR INHIBITORS FOR USE IN THE TREATMENT OF CANCER” (Blueprint Medicines Corporation, priority 2021, published 2024).

Key:
EGFR (L858R T790M C797S) = target: T1, EGFR (L858R T790M C797S) (Homo sapiens, UniProt P00533, C797S/L858R/T790M); test: Biochemical EGFR inhibition assay (Caliper mobility shift), EGFR LRTMCS; conditions: LRTMCS (PH) IC50 (nM) @ 1 mM ATP (Num), EGFR LRTMCS mutant
T1 construct: purchased SignalChem E10-122VG
How it was run: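 Apparent IC50s were derived by plotting percent activity against the log of compound concentration. Activity was measured as phosphopeptide electrophoretically separated from substrate, after reactions at room temperature reached 10% to 20% phosphorylation and were halted with 35 mM EDTA.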

[1] = target: T2, intracellular phosphorylation of EGFR in NCI-H1975 cell line that harbors the EGFR L858R T790M mutations (Homo sapiens, UniProt P00533, L858R/T790M); test: NCI-H1975 pEGFR AlphaLISA assay; format: cell-based; conditions: NCI-H1975 cells (EGFR L858R T790M), p-EGFR (Tyr1068), 4-5 hours incubation; read-out: Ext pEGFR H1975 GMean IC50 (nM) Protocol: @Pharmaron AlphaLISA (Num)
T2 construct: NCI-H1975 cell line that harbors the EGFR L858R T790M mutations (ATCC, CRL-5908); host or cells: NCI-H1975
Protocol: On the next day, the test compounds and DMSO control were added into H1975 cell plate followed by incubation at 37C/5% CO2 for 4-5 hours. […] Then 5 μL of a donor bead mix was added to each well followed by overnight incubation at room temperature in dark. On the next day, the plate was read at a compatible plate reader to obtain pEGFR signal. Percent of pEGFR inhibition was plotted against log concentration of compounds to generate IC50 values.

T1 sequence (P00533 25-1210 T790M/C797S/L858R): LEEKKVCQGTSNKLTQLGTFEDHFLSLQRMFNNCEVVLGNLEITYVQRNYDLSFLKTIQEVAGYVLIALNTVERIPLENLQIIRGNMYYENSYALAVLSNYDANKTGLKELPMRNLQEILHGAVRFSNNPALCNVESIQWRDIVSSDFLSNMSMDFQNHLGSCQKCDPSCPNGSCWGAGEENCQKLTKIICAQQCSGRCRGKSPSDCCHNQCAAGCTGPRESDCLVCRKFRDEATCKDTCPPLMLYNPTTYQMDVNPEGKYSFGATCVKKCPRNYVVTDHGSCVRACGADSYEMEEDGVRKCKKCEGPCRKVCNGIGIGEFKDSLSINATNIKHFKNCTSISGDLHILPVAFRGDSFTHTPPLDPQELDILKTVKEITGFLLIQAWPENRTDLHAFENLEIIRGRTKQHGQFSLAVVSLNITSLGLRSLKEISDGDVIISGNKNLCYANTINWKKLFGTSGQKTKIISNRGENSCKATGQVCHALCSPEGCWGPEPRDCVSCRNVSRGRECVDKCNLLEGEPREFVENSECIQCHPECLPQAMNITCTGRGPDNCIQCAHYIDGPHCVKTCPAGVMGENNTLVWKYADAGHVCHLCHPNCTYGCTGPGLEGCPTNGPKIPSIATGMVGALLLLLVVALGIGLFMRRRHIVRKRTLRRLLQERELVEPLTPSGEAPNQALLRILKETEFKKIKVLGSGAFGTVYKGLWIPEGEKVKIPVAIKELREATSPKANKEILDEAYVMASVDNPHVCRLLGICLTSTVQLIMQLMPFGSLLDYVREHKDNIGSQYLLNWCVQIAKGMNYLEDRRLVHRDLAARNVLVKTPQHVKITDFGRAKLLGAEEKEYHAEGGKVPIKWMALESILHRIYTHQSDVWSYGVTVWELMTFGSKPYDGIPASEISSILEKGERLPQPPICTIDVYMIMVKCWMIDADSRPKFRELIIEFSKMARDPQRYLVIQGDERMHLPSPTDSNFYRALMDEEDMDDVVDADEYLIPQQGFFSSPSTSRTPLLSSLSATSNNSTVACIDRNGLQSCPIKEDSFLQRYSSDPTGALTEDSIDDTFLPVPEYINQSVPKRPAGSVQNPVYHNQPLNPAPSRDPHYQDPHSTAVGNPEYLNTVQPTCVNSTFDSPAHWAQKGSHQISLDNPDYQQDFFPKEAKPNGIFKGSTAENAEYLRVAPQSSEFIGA
T2 sequence (P00533 25-1210 T790M/L858R): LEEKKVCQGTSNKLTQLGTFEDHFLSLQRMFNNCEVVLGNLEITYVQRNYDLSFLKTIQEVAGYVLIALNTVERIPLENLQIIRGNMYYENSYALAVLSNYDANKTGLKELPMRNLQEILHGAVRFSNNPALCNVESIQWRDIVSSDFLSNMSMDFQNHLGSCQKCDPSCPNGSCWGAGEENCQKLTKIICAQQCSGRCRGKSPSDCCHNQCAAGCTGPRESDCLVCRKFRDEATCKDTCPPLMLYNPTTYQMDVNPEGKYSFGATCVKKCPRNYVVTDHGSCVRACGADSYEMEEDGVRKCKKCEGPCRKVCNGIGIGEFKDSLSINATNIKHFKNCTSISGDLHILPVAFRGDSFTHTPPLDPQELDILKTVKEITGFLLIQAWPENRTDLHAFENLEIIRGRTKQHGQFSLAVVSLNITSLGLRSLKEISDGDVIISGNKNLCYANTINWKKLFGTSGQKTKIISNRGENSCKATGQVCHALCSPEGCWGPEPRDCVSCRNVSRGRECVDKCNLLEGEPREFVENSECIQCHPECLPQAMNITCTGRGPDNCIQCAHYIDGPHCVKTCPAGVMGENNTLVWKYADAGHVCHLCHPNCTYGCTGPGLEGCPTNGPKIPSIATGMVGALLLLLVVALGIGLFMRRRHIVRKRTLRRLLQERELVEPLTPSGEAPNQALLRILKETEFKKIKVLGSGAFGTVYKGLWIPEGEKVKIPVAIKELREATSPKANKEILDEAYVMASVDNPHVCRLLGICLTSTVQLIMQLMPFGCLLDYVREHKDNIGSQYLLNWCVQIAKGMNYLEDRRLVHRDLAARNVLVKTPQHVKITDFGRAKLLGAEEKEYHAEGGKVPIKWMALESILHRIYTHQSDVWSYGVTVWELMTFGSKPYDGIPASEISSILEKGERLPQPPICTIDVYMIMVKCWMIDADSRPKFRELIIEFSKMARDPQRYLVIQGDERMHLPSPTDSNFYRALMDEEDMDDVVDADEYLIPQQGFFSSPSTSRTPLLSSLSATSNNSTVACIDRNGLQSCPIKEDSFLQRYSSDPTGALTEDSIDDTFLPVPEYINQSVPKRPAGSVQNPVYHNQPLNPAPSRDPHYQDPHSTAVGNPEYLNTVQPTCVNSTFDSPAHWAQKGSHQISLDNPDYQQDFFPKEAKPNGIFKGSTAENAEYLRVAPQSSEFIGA

| SMILES | IC50 (EGFR (L858R T790M C797S)) | IC50 [1] |
| --- | --- | --- |
| COC1CN(c2ccc([C@@H](C)CO)c3cc(Nc4ccnc(N5CC[C@@H](O)[C@@](C)(F)C5)n4)ncc23)C1 (single isomer, unassigned) [Example 180, (3S,4R)-3-fluoro-1-(4-((5-((R)-1-hydroxypropan-2-yl)-8-(3-methoxyazetidin-1-yl)isoquinolin-3-yl)amino)pyrimidin-2-yl)-3-methylpiperidin-4-ol or (3S,4R)-3-fluoro-1-(4-((5-((S)-1-hydroxypropan-2-yl)-8-(3-methoxyazetidin-1-yl)isoquinolin-3-yl)amino)pyrimidin-2-yl)-3-methylpiperidin-4-ol] | 30 to 100 nM | > 50 nM |
| C[C@@H]1CCN1c1ncc([C@@H](C)OCC2COC2)c2cc(Nc3ccnc(N4CC[C@@H](O)[C@@](C)(F)C4)n3)ncc12 (single isomer, unassigned) [Example 183, (3S,4R)-3-fluoro-3-methyl-1-(4-((8-((R)-2-methylazetidin-1-yl)-5-((R)-1-(oxetan-3-ylmethoxy)ethyl)-2,7-naphthyridin-3-yl)amino)pyrimidin-2-yl)piperidin-4-ol or (3S,4R)-3-fluoro-3-methyl-1-(4-((8-((R)-2-methylazetidin-1-yl)-5-((S)-1-(oxetan-3-ylmethoxy)ethyl)-2,7-naphthyridin-3-yl)amino)pyrimidin-2-yl)piperidin-4-ol] | 30 to 100 nM | > 50 nM |
| C[C@@H]1CCN1c1ncc([C@@H](C)OCC2COC2)c2cc(Nc3ccnc(N4CC[C@@H](O)[C@@](C)(F)C4)n3)ncc12 (single isomer, unassigned) [Example 184, (3S,4R)-3-fluoro-3-methyl-1-(4-((8-((R)-2-methylazetidin-1-yl)-5-((R)-1-(oxetan-3-ylmethoxy)ethyl)-2,7-naphthyridin-3-yl)amino)pyrimidin-2-yl)piperidin-4-ol or (3S,4R)-3-fluoro-3-methyl-1-(4-((8-((R)-2-methylazetidin-1-yl)-5-((S)-1-(oxetan-3-ylmethoxy)ethyl)-2,7-naphthyridin-3-yl)amino)pyrimidin-2-yl)piperidin-4-ol] | 20 to 30 nM | 30 to 50 nM |
| CC(C)c1cnc(N2CCC23CNC3)c2cnc(Nc3ccnc(N4CC[C@@]5(CCO5)C(F)(F)C4)n3)cc12 (single isomer, unassigned) [Example 191, (R)—N-(2-(5,5-difluoro-1-oxa-7-azaspiro[3.5]nonan-7-yl)pyrimidin-4-yl)-5-isopropyl-8-(1,6-diazaspiro[3.3]heptan-1-yl)-2,7-naphthyridin-3-amine or (S)—N-(2-(5,5-difluoro-1-oxa-7-azaspiro[3.5]nonan-7-yl)pyrimidin-4-yl)-5-isopropyl-8-(1,6-diazaspiro[3.3]heptan-1-yl)-2,7-naphthyridin-3-amine] | < 15 nM | > 50 nM |
| CC(C)c1cnc(N2CCC23CN(C)C3)c2cnc(Nc3ccnc(N4CC[C@@]5(CCO5)C(F)(F)C4)n3)cc12 (single isomer, unassigned) [Example 194, (R)—N-(2-(5,5-difluoro-1-oxa-7-azaspiro[3.5]nonan-7-yl)pyrimidin-4-yl)-5-isopropyl-8-(6-methyl-1,6-diazaspiro[3.3]heptan-1-yl)-2,7-naphthyridin-3-amine or (S)—N-(2-(5,5-difluoro-1-oxa-7-azaspiro[3.5]nonan-7-yl)pyrimidin-4-yl)-5-isopropyl-8-(6-methyl-1,6-diazaspiro[3.3]heptan-1-yl)-2,7-naphthyridin-3-amine] | < 15 nM | > 50 nM |
| CC(C)c1cnc(N2CC[C@]23CCN(C)C3)c2cnc(Nc3ccnc(N4CC[C@@H](O)[C@@](C)(F)C4)n3)cc12 (single isomer, unassigned) [Example 198, (3S,4R)-3-fluoro-1-(4-((5-isopropyl-8-((S)-6-methyl-1,6-diazaspiro[3.4]octan-1-yl)-2,7-naphthyridin-3-yl)amino)pyrimidin-2-yl)-3-methylpiperidin-4-ol or (3S,4R)-3-fluoro-1-(4-((5-isopropyl-8-((R)-6-methyl-1,6-diazaspiro[3.4]octan-1-yl)-2,7-naphthyridin-3-yl)amino)pyrimidin-2-yl)-3-methylpiperidin-4-ol] | 15 to 20 nM | 30 to 50 nM |
| CC(C)c1cnc(N2CC[C@@]23CCN(C)C3)c2cnc(Nc3ccnc(N4CC[C@@H](O)[C@@](C)(F)C4)n3)cc12 (single isomer, unassigned) [Example 199, (3S,4R)-3-fluoro-1-(4-((5-isopropyl-8-((R)-6-methyl-1,6-diazaspiro[3.4]octan-1-yl)-2,7-naphthyridin-3-yl)amino)pyrimidin-2-yl)-3-methylpiperidin-4-ol or (3S,4R)-3-fluoro-1-(4-((5-isopropyl-8-((S)-6-methyl-1,6-diazaspiro[3.4]octan-1-yl)-2,7-naphthyridin-3-yl)amino)pyrimidin-2-yl)-3-methylpiperidin-4-ol] | < 15 nM | 20 to 30 nM |
| CC(C)c1cnc(N2CC[C@H]2C(F)F)c2cnc(Nc3ccnc(N4CC[C@@H](O)[C@@](C)(F)C4)n3)cc12 (single isomer, unassigned) [Example 204, (3S,4R)-1-(4-((8-((S)-2-(difluoromethyl)azetidin-1-yl)-5-isopropyl-2,7-naphthyridin-3-yl)amino)pyrimidin-2-yl)-3-fluoro-3-methylpiperidin-4-ol or (3S,4R)-1-(4-((8-((R)-2-(difluoromethyl)azetidin-1-yl)-5-isopropyl-2,7-naphthyridin-3-yl)amino)pyrimidin-2-yl)-3-fluoro-3-methylpiperidin-4-ol] | < 15 nM | 10 to 20 nM |

Now from value to compound:

| IC50 (EGFR (L858R T790M C797S)) | IC50 [1] | SMILES |
| --- | --- | --- |
| 15 to 20 nM | 30 to 50 nM | CCc1cnc(N2CC[C@@H]2C)c2cnc(Nc3ccnc(N4CC[C@@H](O)[C@@](C)(F)C4)n3)cc12 (single isomer, unassigned) [Example 181, (3S,4R)-1-(4-((5-ethyl-8-((S)-2-methylazetidin-1-yl)-2,7-naphthyridin-3-yl)amino)pyrimidin-2-yl)-3-fluoro-3-methylpiperidin-4-ol or (3S,4R)-1-(4-((5-ethyl-8-((R)-2-methylazetidin-1-yl)-2,7-naphthyridin-3-yl)amino)pyrimidin-2-yl)-3-fluoro-3-methylpiperidin-4-ol] |
| 30 to 100 nM | > 50 nM | CCOc1cnc(N2CC[C@@H]2C)c2cnc(Nc3ccnc(N4CC[C@@H](O)[C@@](C)(F)C4)n3)cc12 (single isomer, unassigned) [Example 182, (3S,4R)-1-(4-((5-ethoxy-8-((S)-2-methylazetidin-1-yl)-2,7-naphthyridin-3-yl)amino)pyrimidin-2-yl)-3-fluoro-3-methylpiperidin-4-ol or (3S,4R)-1-(4-((5-ethoxy-8-((R)-2-methylazetidin-1-yl)-2,7-naphthyridin-3-yl)amino)pyrimidin-2-yl)-3-fluoro-3-methylpiperidin-4-ol] |
| 20 to 30 nM | > 50 nM | C[C@@H]1CCN1c1ncc([C@@H](C)C(=O)N(C)C)c2cc(Nc3ccnc(N4CC[C@@H](O)[C@@](C)(F)C4)n3)ncc12 (single isomer, unassigned) [Example 185, (R)-2-(6-((2-((3S,4R)-3-fluoro-4-hydroxy-3-methylpiperidin-1-yl)pyrimidin-4-yl)amino)-1-((R)-2-methylazetidin-1-yl)-2,7-naphthyridin-4-yl)-N,N-dimethylpropanamide or (S)-2-(6-((2-((3S,4R)-3-fluoro-4-hydroxy-3-methylpiperidin-1-yl)pyrimidin-4-yl)amino)-1-((R)-2-methylazetidin-1-yl)-2,7-naphthyridin-4-yl)-N,N-dimethylpropanamide] |
| < 15 nM | 10 to 20 nM | C[C@@H]1CCN1c1ncc([C@@H](C)C(C)(C)O)c2cc(Nc3ccnc(N4CC[C@@H](O)[C@@](C)(F)C4)n3)ncc12 (single isomer, unassigned) [Example 186, (3S,4R)-3-fluoro-1-(4-((5-((R)-3-hydroxy-3-methylbutan-2-yl)-8-((R)-2-methylazetidin-1-yl)-2,7-naphthyridin-3-yl)amino)pyrimidin-2-yl)-3-methylpiperidin-4-ol or (3S,4R)-3-fluoro-1-(4-((5-((S)-3-hydroxy-3-methylbutan-2-yl)-8-((R)-2-methylazetidin-1-yl)-2,7-naphthyridin-3-yl)amino)pyrimidin-2-yl)-3-methylpiperidin-4-ol] |
| 30 to 100 nM | > 50 nM | C[C@H](CO)c1cnc(N2CC[C@H]2C)c2cnc(Nc3ccnc(N4C[C@@H](F)[C@@H](O)C(C)(C)C4)n3)cc12 (single isomer, unassigned) [Example 187] |
| < 15 nM | 20 to 30 nM | C[C@H](CO)c1cnc(N2CC[C@H]2C)c2cnc(Nc3ccnc(N4C[C@@H](F)[C@@H](O)C(C)(C)C4)n3)cc12 (single isomer, unassigned) [Example 188] |
| < 15 nM | 10 to 20 nM | C[C@@H](CO)c1cnc(N2CC[C@@H]2C)c2cnc(Nc3ccnc(N4CC[C@@H](O)[C@@](C)(F)C4)n3)cc12 (single isomer, unassigned) [Example 189] |
